Reference: patent publication US20230382925A1, “MODULATORS OF CYSTIC FIBROSIS TRANSMEMBRANE CONDUCTANCE REGULATOR” (VERTEX PHARMACEUTICALS INCORPORATED, priority 2020, published 2023)
Where “and” joins values, the source holds several entries; their conditions need not be identical. Equal entries are not always repeated. Where two headings read alike, the source gives them in different places.

Tests used:
[1] = amide bond, 13-membered ring, DMF
CFTR = CFTR (Homo sapiens, UniProt P13569); assay: Membrane Potential Dye, Enteroid Assay B; assay type: cell-based
Summary of the method: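 Human intestinal enteroid cells exposed to compound 18-24 h at 37 °C, then loaded with methyl oxonol membrane-potential dye plus CaCC blockers. Chloride transport triggered in chloride-free buffer with 10 μM forskolin, 100 μM IBMX, 300 nM Compound III; fluorescence read 15 min, expressed as % of triple-corrector/potentiator combination control.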

[2] = Table 10, read-out: Ent. B EC50

CFTR, sequence (P13569 with tags, fused parts or gaps DEL508-508): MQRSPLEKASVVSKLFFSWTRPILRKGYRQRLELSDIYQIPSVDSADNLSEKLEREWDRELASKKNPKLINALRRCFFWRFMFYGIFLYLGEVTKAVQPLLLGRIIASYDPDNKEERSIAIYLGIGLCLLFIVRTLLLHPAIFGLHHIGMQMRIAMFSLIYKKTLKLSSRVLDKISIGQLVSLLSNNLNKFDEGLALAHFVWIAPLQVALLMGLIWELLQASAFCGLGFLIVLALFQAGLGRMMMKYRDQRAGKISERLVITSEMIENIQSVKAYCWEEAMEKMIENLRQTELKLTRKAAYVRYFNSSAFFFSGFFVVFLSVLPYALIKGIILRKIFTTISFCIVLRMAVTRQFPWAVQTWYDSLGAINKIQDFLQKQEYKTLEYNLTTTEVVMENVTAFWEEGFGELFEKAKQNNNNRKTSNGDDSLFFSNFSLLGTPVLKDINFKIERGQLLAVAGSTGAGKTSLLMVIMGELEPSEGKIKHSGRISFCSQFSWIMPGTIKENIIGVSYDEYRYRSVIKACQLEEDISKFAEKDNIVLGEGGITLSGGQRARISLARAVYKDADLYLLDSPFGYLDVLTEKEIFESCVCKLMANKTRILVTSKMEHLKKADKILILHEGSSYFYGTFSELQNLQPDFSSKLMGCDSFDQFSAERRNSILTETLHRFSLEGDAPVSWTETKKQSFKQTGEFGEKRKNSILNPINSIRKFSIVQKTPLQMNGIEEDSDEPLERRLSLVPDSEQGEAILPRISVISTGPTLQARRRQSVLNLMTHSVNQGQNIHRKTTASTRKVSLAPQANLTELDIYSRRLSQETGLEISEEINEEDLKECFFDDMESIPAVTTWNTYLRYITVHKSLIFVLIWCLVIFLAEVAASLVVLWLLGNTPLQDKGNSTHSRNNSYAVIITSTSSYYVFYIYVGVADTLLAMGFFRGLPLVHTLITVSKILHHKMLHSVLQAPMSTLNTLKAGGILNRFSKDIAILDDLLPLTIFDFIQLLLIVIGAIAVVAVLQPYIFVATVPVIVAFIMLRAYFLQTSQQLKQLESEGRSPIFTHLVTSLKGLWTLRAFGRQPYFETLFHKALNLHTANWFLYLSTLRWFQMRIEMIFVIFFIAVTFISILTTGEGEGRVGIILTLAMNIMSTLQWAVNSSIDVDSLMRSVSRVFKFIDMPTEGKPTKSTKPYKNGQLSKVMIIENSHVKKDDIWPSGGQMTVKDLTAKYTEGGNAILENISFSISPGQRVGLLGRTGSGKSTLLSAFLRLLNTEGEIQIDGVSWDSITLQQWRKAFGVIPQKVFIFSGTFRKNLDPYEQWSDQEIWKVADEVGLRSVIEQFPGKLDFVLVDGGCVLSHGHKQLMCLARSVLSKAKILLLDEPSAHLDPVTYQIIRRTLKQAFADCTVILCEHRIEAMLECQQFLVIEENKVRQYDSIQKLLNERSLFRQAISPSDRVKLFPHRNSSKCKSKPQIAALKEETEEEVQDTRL

Compound `Cc1cccc(C)c1-c1cc2nc(n1)NS(=O)(=O)c1cccc(c1)C(=O)N(C1CC(C(=O)OC(C)(C)C)C1)[C@H](CC(C)C)CO2` (stereo partly drawn) has a ring closure, yield after HPLC ([1]; from Cc1cccc(C)c1-c1cc(OC[C@@H](CC(C)C)NC2CC(C(=O)OC(C)(C)C)C2)nc(NS(=O)(=O)c2cccc(C(=O)O)c2)n1, HATU/DIEA, 16.0 h, 2 steps) of 79%.
In the case of `COC1C[C@@H]2CC(N3C(=O)c4cccc(c4)S(=O)(=O)Nc4nc(cc(-c5c(C)cccc5C)n4)OC[C@H]3CC(C)C)C[C@@H]2C1` (stereo partly drawn), the ring closure, yield after HPLC ([1]; from COC1C[C@H]2CC(N[C@@H](COc3cc(-c4c(C)cccc4C)nc(NS(=O)(=O)c4cccc(C(=O)O)c4)n3)CC(C)C)C[C@H]2C1, COMU/DIEA, 29.7 mM, 14.0 h) is reported as 30%.
Work on `COC(=O)C1CC2(C1)CC(N1C(=O)c3cccc(c3)S(=O)(=O)Nc3nc(cc(-c4c(C)cccc4C)n3)OC[C@H]1CC1(C(F)(F)F)CC1)C2` (stereo partly drawn) yielded a ring closure, yield after HPLC ([1]; from COC(=O)C1CC2(CC(N[C@@H](COc3cc(-c4c(C)cccc4C)nc(NS(=O)(=O)c4cccc(C(=O)O)c4)n3)CC3(C(F)(F)F)CC3)C2)C1, HATU/TEA, 25.0 °C, 16.0 h, 2 steps) of 32%.
`Cc1cccc(C)c1-c1cc2nc(n1)NS(=O)(=O)c1cccc(n1)C(=O)N(C1CC3(C1)CC(C(C)(C)O)C3)[C@H](CC(C)(C)C)CO2` (stereo partly drawn) showed a ring closure, yield after HPLC ([1]; from Cc1cccc(C)c1-c1cc(OC[C@@H](CC(C)(C)C)NC2CC3(C2)CC(C(C)(C)O)C3)nc(NS(=O)(=O)c2cccc(C(=O)O)n2)n1, HATU/DIEA, 26.7 mM, 25.0 °C, 17.0 h) of 28%.
With `Cc1cccc(C)c1-c1cc2nc(n1)NS(=O)(=O)c1cccc(c1)C(=O)N(c1cnn(C(C)(C)C)c1)[C@H](CC(C)(C)C)CO2` [Compound 184, (11R)-12-(1-tert-Butylpyrazol-4-yl)-6-(2,6-dimethylphenyl)-11-(2,2-dimethylpropyl)-2,2-dioxo-9-oxa-2λ^6-thia-3,5,12,19-tetrazatricyclo[12.3.1.14,8]nonadeca-1(18),4(19),5,7,14,16-hexaen-13-one] the ring closure, yield after HPLC ([1]; from Cc1cccc(C)c1-c1cc(OC[C@@H](CC(C)(C)C)Nc2cnn(C(C)(C)C)c2)nc(NS(=O)(=O)c2cccc(C(=O)O)c2)n1, CDMT/NMM, 24.9 mM, 48.0 h, 2 steps) was 7%, the “Ent. B Max Activity (%)” value (CFTR; Table 10) was “+++ (+++ is >60%)” and the EC50 (CFTR; [2]) was under 1 µM.
For `Cc1cccc(C)c1-c1cc2nc(n1)NS(=O)(=O)c1cccc(c1)C(=O)N(C1CC3(CC3)C1)C[C@@H](C)O2` [Compound 180, (10R)-6-(2,6-Dimethylphenyl)-10-methyl-2,2-dioxo-12-spiro[2.3]hexan-5-yl-9-oxa-2λ^6-thia-3,5,12,19-tetrazatricyclo[12.3.1.14,8]nonadeca-1(18),4(19),5,7,14,16-hexaen-13-one], the ring closure, yield after HPLC ([1]; from Cc1cccc(C)c1-c1cc(O[C@H](C)CNC2CC3(CC3)C2)nc(NS(=O)(=O)c2cccc(C(=O)O)c2)n1, HATU/DIEA, 7.3 mM, 1.0 h, 2 steps) was 6%, the “Ent. B Max Activity (%)” value (CFTR) was “+++ (+++ is >60%)” and the EC50 (CFTR; read-out: Ent. B EC50) was under 1 µM.
With `Cc1cccc(C)c1-c1cc2nc(n1)NS(=O)(=O)c1cccc(c1)C(=O)N(C1CC(NC(=O)OC(C)(C)C)C1)[C@H](CC(C)C)CO2` (stereo partly drawn) the ring closure, yield after HPLC ([1]; from Cc1cccc(C)c1-c1cc(OC[C@@H](CC(C)C)NC2CC(NC(=O)OC(C)(C)C)C2)nc(NS(=O)(=O)c2cccc(C(=O)O)c2)n1, HATU/DIPEA, 22.4 mM, 6.0 h, 2 steps) was 7% and 6%.
With `Cc1cccc(C)c1-c1cc2nc(n1)NS(=O)(=O)c1cccc(c1)C(=O)N(C1CC(CO)C1)[C@H](CC(C)C)CO2` (stereo partly drawn) the ring closure, yield after HPLC ([1]; from Cc1cccc(C)c1-c1cc(OC[C@@H](CC(C)C)NC2CC(CO)C2)nc(NS(=O)(=O)c2cccc(C(=O)O)c2)n1, HATU/DIPEA, 32.3 mM, 1.0 h) was 11%.
Work on `Cc1cccc(C)c1-c1cc2nc(n1)NS(=O)(=O)c1cccc(c1)C(=O)N(C1CC(OC(C)C)C1)[C@H](CC1(C(F)(F)F)CC1)CO2` (stereo partly drawn) yielded a ring closure, yield after HPLC ([1]; from Cc1cccc(C)c1-c1cc(OC[C@@H](CC2(C(F)(F)F)CC2)NC2CC(OC(C)C)C2)nc(NS(=O)(=O)c2cccc(C(=O)O)c2)n1, HATU/TEA, 44.0 mM, 16.0 h) of 18%.
For `Cc1cccc(C)c1-c1cc2nc(n1)NS(=O)(=O)c1cccc(c1)C(=O)N(C1CN(C(=O)OC(C)(C)C)C(C)(C)C1)[C@H](CC(C)C)CO2` (stereo partly drawn), the ring closure, yield after HPLC ([1]; from Cc1cccc(C)c1-c1cc(OC[C@@H](CC(C)C)NC2CN(C(=O)OC(C)(C)C)C(C)(C)C2)nc(NS(=O)(=O)c2cccc(C(=O)O)c2)n1, COMU/DIEA, 2 steps) was 8% and 4%.
With `COCCn1cc(N2C(=O)c3cccc(c3)S(=O)(=O)Nc3nc(cc(-c4c(C)cccc4C)n3)OC[C@H]2CCC(C)C)cn1` [Compound 6, (11R)-6-(2,6-Dimethylphenyl)-11-isopentyl-12-[1-(2-methoxyethyl)pyrazol-4-yl]-2,2-dioxo-9-oxa-2λ^6-thia-3,5,12,19-tetrazatricyclo[12.3.1.14,8]nonadeca-1(18),4(19),5,7,14,16-hexaen-13-one] the ring closure, yield after HPLC ([1]; from COCCn1cc(N[C@H](CCC(C)C)COc2cc(-c3c(C)cccc3C)nc(NS(=O)(=O)c3cccc(C(=O)O)c3)n2)cn1, CDMT/NMM, 48.0 h, 2 steps) was 16%, the “Ent. B Max Activity (%)” value (CFTR; Table 10) was “+++ (+++ is >60%)” and the EC50 (CFTR; [2]) was under 1 µM.
For `Cc1cccc(C)c1-c1cc2nc(n1)NS(=O)(=O)c1cccc(c1)C(=O)N(C1CC(OC(C)C)C1)[C@H](CC(C)C)CO2` (stereo partly drawn) [Compound 47, (11R)-6-(2,6-Dimethylphenyl)-11-isobutyl-12-(3-isopropoxycyclobutyl)-2,2-dioxo-9-oxa-2λ^6-thia-3,5,12,19-tetrazatricyclo[12.3.1.14,8]nonadeca-1(18),4(19),5,7,14,16-hexaen-13-one], the ring closure, yield after HPLC ([1]; from Cc1cccc(C)c1-c1cc(OC[C@@H](CC(C)C)NC2CC(OC(C)C)C2)nc(NS(=O)(=O)c2cccc(C(=O)O)c2)n1, HATU/Et3N, 59.2 mM, 2.0 h) was 53%, the “Ent. B Max Activity (%)” value (CFTR; Table 9) was “+++ (+++ is >60%)” and the EC50 (CFTR; Table 9, read-out: Ent. B EC50) was under 1 µM.
Work on `Cc1cccc(C)c1-c1cc2cc(n1)NS(=O)(=O)c1cccc(c1)C(=O)N(C1CC3(CCN(C(=O)OC(C)(C)C)CC3)C1)[C@H](CC(C)C)CO2` yielded a ring closure, yield after HPLC ([1]; from Cc1cccc(C)c1-c1cc(OC[C@@H](CC(C)C)NC2CC3(CCN(C(=O)OC(C)(C)C)CC3)C2)cc(NS(=O)(=O)c2cccc(C(=O)O)c2)n1, HATU/DIEA, 34.7 mM, 14.0 h) of 16%.
In the case of `COCCn1cc(N2C(=O)c3cccc(c3)S(=O)(=O)Nc3nc(cc(-c4c(C)cccc4C)n3)OC[C@H]2CC(C)C)cn1` [Compound 98, (11R)-6-(2,6-Dimethylphenyl)-11-isobutyl-12-[1-(2-methoxyethyl)pyrazol-4-yl]-2,2-dioxo-9-oxa-2λ^6-thia-3,5,12,19-tetrazatricyclo[12.3.1.14,8]nonadeca-1(18),4(19),5,7,14,16-hexaen-13-one], the ring closure, yield after HPLC ([1]; from COCCn1cc(N[C@@H](COc2cc(-c3c(C)cccc3C)nc(NS(=O)(=O)c3cccc(C(=O)O)c3)n2)CC(C)C)cn1, CDMT/NMM, 48.0 h, 2 steps) is reported as 9%, the “Ent. B Max Activity (%)” value (CFTR; Table 10) is reported as “+++ (+++ is >60%)” and the EC50 (CFTR; [2]) is reported as under 1 µM.
With `Cc1cccc(C)c1-c1cc2nc(n1)NS(=O)(=O)c1cccc(c1)C(=O)N(c1cnn(C)c1)[C@H](CCC(C)C)CO2` [Compound 7, (11R)-6-(2,6-Dimethylphenyl)-11-isopentyl-12-(1-methylpyrazol-4-yl)-2,2-dioxo-9-oxa-2λ^6-thia-3,5,12,19-tetrazatricyclo[12.3.1.14,8]nonadeca-1(18),4(19),5,7,14,16-hexaen-13-one] the ring closure, yield after HPLC ([1]; from Cc1cccc(C)c1-c1cc(OC[C@@H](CCC(C)C)Nc2cnn(C)c2)nc(NS(=O)(=O)c2cccc(C(=O)O)c2)n1, CDMT/NMM, 48.0 h, 2 steps) was 19%, the “Ent. B Max Activity (%)” value (CFTR; Table 10) was “+++ (+++ is >60%)” and the EC50 (CFTR; [2]) was under 1 µM.
In the case of `Cc1cccc(C)c1-c1cc2nc(n1)NS(=O)(=O)c1cccc(c1)C(=O)N(C1Cc3ccccc3C1)[C@H](CC(C)(C)C)CO2` [Compound 183, (11R)-6-(2,6-Dimethylphenyl)-11-(2,2-dimethylpropyl)-12-indan-2-yl-2,2-dioxo-9-oxa-2λ^6-thia-3,5,12,19-tetrazatricyclo[12.3.1.14,8]nonadeca-1(18),4(19),5,7,14,16-hexaen-13-one], the ring closure, yield after HPLC ([1]; from Cc1cccc(C)c1-c1cc(OC[C@@H](CC(C)(C)C)NC2Cc3ccccc3C2)nc(NS(=O)(=O)c2cccc(C(=O)O)c2)n1, CDMT/NMM, 25.7 mM, 24.0 h) is reported as 13%, the “Ent. B Max Activity (%)” value (CFTR; Table 10) is reported as “+++ (+++ is >60%)” and the EC50 (CFTR; [2]) is reported as under 1 µM.
In the case of `Cc1cccc(C)c1-c1cc2nc(n1)NS(=O)(=O)c1cccc(c1)C(=O)N(C1CC(CNC(=O)OC(C)(C)C)C1)[C@H](CC(C)C)CO2` (stereo partly drawn), the ring closure, yield after HPLC ([1]; from Cc1cccc(C)c1-c1cc(OC[C@@H](CC(C)C)NC2CC(CNC(=O)OC(C)(C)C)C2)nc(NS(=O)(=O)c2cccc(C(=O)O)c2)n1, HATU/DIEA, 7.0 h, 2 steps) is reported as 15% and 19%.
Compound `Cc1cccc(C)c1-c1cc2nc(n1)NS(=O)(=O)c1cccc(c1)C(=O)N(C1CCC1C1CC1)[C@H](CC(C)(C)C)CO2` (stereo partly drawn) has a ring closure, yield after HPLC ([1]; from Cc1cccc(C)c1-c1cc(OC[C@@H](CC(C)(C)C)NC2CCC2C2CC2)nc(NS(=O)(=O)c2cccc(C(=O)O)c2)n1, CDMT/NMM, 25.0 °C, 2 steps) of 2%.
With `Cc1cccc(C)c1-c1cc2nc(n1)NS(=O)(=O)c1cccc(c1)C(=O)N(C1CC3(CC3)C1)C(CC(F)(F)F)CO2` (stereo not drawn) the ring closure, yield after HPLC ([1]; from Cc1cccc(C)c1-c1cc(OCC(CC(F)(F)F)NC2CC3(CC3)C2)nc(NS(=O)(=O)c2cccc(C(=O)O)c2)n1, HATU/TEA, 18.3 mM, 18.0 h) was 15%.
